This passage reports IC50 and melting point results from PMC6151782, “Synthesis, In Vitro α-Glucosidase Inhibitory Activity and Molecular Docking Studies of Novel Benzothiazole-Triazole Derivatives” (Molecules : A Journal of Synthetic Chemistry and Natural …, 2017).

The structures appear in SMILES notation.

Data set [1] concerns the target T1, Baker’s yeast α-glucosidase enzyme (Saccharomyces cerevisiae, UniProt P53341).
T1 construct: purchased
The experiment in a line: biochemical. From the text:
The sample solution was replaced by DMSO as a control. Acarbose was used as a positive control.

T1 sequence (P53341 whole entry): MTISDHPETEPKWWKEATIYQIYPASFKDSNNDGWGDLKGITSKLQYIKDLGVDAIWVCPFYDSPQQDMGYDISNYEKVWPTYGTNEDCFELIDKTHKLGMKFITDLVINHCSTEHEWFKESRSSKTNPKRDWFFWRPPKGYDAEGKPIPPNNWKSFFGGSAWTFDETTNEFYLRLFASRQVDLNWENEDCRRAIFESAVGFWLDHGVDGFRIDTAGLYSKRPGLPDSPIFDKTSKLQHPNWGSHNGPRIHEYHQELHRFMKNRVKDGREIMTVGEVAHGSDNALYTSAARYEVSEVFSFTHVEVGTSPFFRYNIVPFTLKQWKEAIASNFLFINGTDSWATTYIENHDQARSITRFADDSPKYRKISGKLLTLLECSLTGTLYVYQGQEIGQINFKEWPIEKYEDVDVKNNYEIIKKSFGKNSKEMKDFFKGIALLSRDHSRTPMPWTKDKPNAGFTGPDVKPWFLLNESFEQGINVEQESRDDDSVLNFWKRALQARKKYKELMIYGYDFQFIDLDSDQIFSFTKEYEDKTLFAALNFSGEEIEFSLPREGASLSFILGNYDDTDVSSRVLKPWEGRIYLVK

For `Clc1ccc(Cn2cc(CSc3nc4cc(Cl)ccc4s3)nn2)cc1` [Compound 6m, 5-Chloro-2-(((1-(4-chlorobenzyl)-1H-1,2,3-triazol-4-yl)methyl)thio)benzo[d]thiazole], the melting point fell in the range of 111 to 112 °C. It took 28.2 µM to reach half-maximal inhibition in data set [1] (IC50).
The corresponding values for `Clc1ccc2sc(SCc3cn(Cc4ccccc4)nn3)nc2c1` [Compound 6r, 2-(((1-Benzyl-1H-1,2,3-triazol-4-yl)methyl)thio)-5-chlorobenzo[d]thiazole] are 142 to 144 °C and 44.4 µM.
`Clc1ccc2sc(SCc3cn(Cc4ccc(Br)cc4)nn3)nc2c1` [Compound 6n, 2-(((1-(4-Bromobenzyl)-1H-1,2,3-triazol-4-yl)methyl)thio)-5-chlorobenzo[d]thiazole] yielded a melting point of 114 to 116 °C. In data set [1], this compound gave an IC50 of 28 µM.
The corresponding values for `Clc1ccc2sc(SCc3cn(Cc4ccccc4Br)nn3)nc2c1` [Compound 6k, 2-(((1-(2-Bromobenzyl)-1H-1,2,3-triazol-4-yl)methyl)thio)-5-chlorobenzo[d]thiazole] are 119 to 120 °C and 48.4 µM.
The corresponding values for `Fc1ccc(Cn2cc(CSc3nc4cc(Cl)ccc4s3)nn2)cc1` [Compound 6q, 5-Chloro-2-(((1-(4-fluorobenzyl)-1H-1,2,3-triazol-4-yl)methyl)thio)benzo[d]thiazole] are 108 to 109 °C and 53.1 µM.
For `Clc1ccc2sc(SCc3cn(Cc4ccccc4Cl)nn3)nc2c1` [Compound 6l, 5-Chloro-2-(((1-(2-chlorobenzyl)-1H-1,2,3-triazol-4-yl)methyl)thio)benzo[d]thiazole], in that order: 128 to 130 °C and 33.6 µM.
`Fc1cccc(Cn2cc(CSc3nc4cc(Cl)ccc4s3)nn2)c1` [Compound 6p, 5-Chloro-2-(((1-(3-fluorobenzyl)-1H-1,2,3-triazol-4-yl)methyl)thio)benzo[d]thiazole] had a melting point of 140 to 141 °C. Further, the IC50 in data set [1] was 38.6 µM.
The corresponding values for `Clc1cc(Cl)cc(Cn2cc(CSc3nc4cc(Cl)ccc4s3)nn2)c1` [Compound 6o, 5-Chloro-2-(((1-(3,5-dichlorobenzyl)-1H-1,2,3-triazol-4-yl)methyl)thio)benzo[d]thiazole] are 124 to 126 °C and 22.3 µM.
For `Fc1ccccc1Cn1cc(CSc2nc3cc(Cl)ccc3s2)nn1` [Compound 6j, 5-Chloro-2-(((1-(2-fluorobenzyl)-1H-1,2,3-triazol-4-yl)methyl)thio)benzo[d]thiazole], in that order: 115 to 117 °C and 45.9 µM.
For `CC(C)(C)c1ccc(Cn2cc(CSc3nc4ccccc4s3)nn2)cc1` [Compound 6i, 2-(((1-(4-(Tert-butyl)benzyl)-1H-1,2,3-triazol-4-yl)methyl)thio)benzo[d]thiazole], in that order: 77 to 78 °C and 29.4 µM.
In turn, `Brc1ccccc1Cn1cc(CSc2nc3ccccc3s2)nn1` [Compound 6c, 2-(((1-(2-Bromobenzyl)-1H-1,2,3-triazol-4-yl)methyl)thio)benzo[d]thiazole] gave a melting point of 104 to 106 °C. For the same compound, the midpoint of inhibition in data set [1], the IC50, lay at 37.4 µM.
The corresponding values for `Brc1ccc(Cn2cc(CSc3nc4ccccc4s3)nn2)cc1` [Compound 6a, 2-(((1-(4-Bromobenzyl)-1H-1,2,3-triazol-4-yl)methyl)thio)benzo[d]thiazole] are 112 to 114 °C and 28.7 µM.
`Clc1ccccc1Cn1cc(CSc2nc3ccccc3s2)nn1` [Compound 6b, 2-(((1-(2-Chlorobenzyl)-1H-1,2,3-triazol-4-yl)methyl)thio)benzo[d]thiazole] gave a melting point of 110 to 111 °C. Besides, the IC50 in data set [1] was more than 100 µM.
The corresponding values for `Clc1ccc(Cn2cc(CSc3nc4ccccc4s3)nn2)cc1` [Compound 6e, 2-(((1-(4-Chlorobenzyl)-1H-1,2,3-triazol-4-yl)methyl)thio)benzo[d]thiazole] are 119 to 120 °C and 27.4 µM.
For `Fc1ccccc1Cn1cc(CSc2nc3ccccc3s2)nn1` [Compound 6f, 2-(((1-(2-Fluorobenzyl)-1H-1,2,3-triazol-4-yl)methyl)thio)benzo[d]thiazole], in that order: 86 to 88 °C and more than 100 µM.
Turning to `c1ccc(Cn2cc(CSc3nc4ccccc4s3)nn2)cc1` [Compound 6g, 2-(((1-Benzyl-1H-1,2,3-triazol-4-yl)methyl)thio)benzo[d]thiazole], the melting point lay within 109 to 110 °C. This compound also displayed an IC50 in data set [1] of more than 100 µM.
For `Fc1cccc(Cn2cc(CSc3nc4ccccc4s3)nn2)c1` [Compound 6d, 2-(((1-(3-Fluorobenzyl)-1H-1,2,3-triazol-4-yl)methyl)thio)benzo[d]thiazole], in that order: 112 to 114 °C and 61.1 µM.
